According to ChEMBL document CHEMBL3390848, “Affinity selection and sequence-activity relationships of HIV-1 membrane fusion inhibitors directed at the drug-resistant variants” (Medchemcomm, 2010):
pEC50: −log10 of the molar value. Residues, ends and D or L forms follow the SMILES beside them.

What was measured:
[1] = test system: Human immunodeficiency virus 1; experiment: Binding affinity to HIV1 His-tagged N-terminal heptad repeat of envelope glycoprotein gp41 assessed as recovery of N36-drug complex at 1 uM after 2 hrs by LC-MS analysis
[2] = test system: Human immunodeficiency virus 1; experiment: Binding affinity to HIV1 His-tagged N-terminal heptad repeat of envelope glycoprotein gp41 assessed as recovery of N36-drug complex at 10 uM after 2 hrs by LC-MS analysis
[3] = test system: Human immunodeficiency virus 1; experiment: Binding affinity to HIV1 His-tagged N-terminal heptad repeat of envelope glycoprotein gp41 assessed as recovery of N36-drug complex at 0.6 uM after 2 hrs by LC-MS analysis
[4] = test system: Human immunodeficiency virus 1; experiment: Thermal stability of HIV1 envelope glycoprotein gp41 His-tagged N-terminal heptad repeat N36-drug complex assessed as thermal unfolding transition state by measuring molar ellipticity at 4 to 90 degC by circular dichroic spectra analysis
[5] = test system: Human immunodeficiency virus 1; experiment: Binding affinity to HIV1 His-tagged N-terminal heptad repeat of envelope glycoprotein gp41 assessed as recovery of N36-drug complex at 6 uM after 2 hrs by LC-MS analysis
[6] = test system: Human immunodeficiency virus 1; experiment: Antiviral activity against HIV1 NL4-3 harboring gp41 D36G mutant infected in human HeLa cells expressing CD4-LTR-beta-gal assessed as inhibition of viral replication after 48 hrs by MAGI assay; type: functional, organism-based
[7] = test system: Human immunodeficiency virus 1; experiment: Binding affinity to HIV1 His-tagged N-terminal heptad repeat of envelope glycoprotein gp41 assessed as recovery of N36-drug complex after 2 hrs by LC-MS analysis; design: concentration or dose not given beside the values

SMILES	Activity [1] [%]	Activity [2] [%]	Activity [3] [%]	Tm [4] [°C]	Activity [5] [%]	pEC50 [6]	Activity [7] [%]
CC[C@H](C)[C@H](NC(=O)[C@H](CC(C)C)NC(=O)[C@H](CCC(=O)O)NC(=O)[C@H](CCC(=O)O)NC(=O)[C@@H](NC(=O)[C@H](CCCCN)NC(=O)[C@H](CCCCN)NC(=O)[C@@H](NC(=O)[C@H](Cc1ccc(O)cc1)NC(=O)[C@H](CCC(=O)O)NC(=O)[C@H](CCC(=O)O)NC(=O)[C@@H](NC(=O)[C@H](CCCCN)NC(=O)[C@H](CCCCN)NC(=O)[C@H](CC(=O)O)NC(=O)[C@H](Cc1c[nH]c2ccccc12)NC(=O)[C@H](CCC(=O)O)NC(=O)[C@H](CCC(=O)O)NC(=O)[C@H](Cc1c[nH]c2ccccc12)NC(C)=O)[C@@H](C)CC)[C@@H](C)O)[C@@H](C)CC)C(=O)N[C@@H](CCCCN)C(=O)N[C@@H](CCCCN)C(=O)N[C@@H](Cc1ccccc1)C(=O)N[C@@H](CCC(=O)O)C(=O)N[C@@H](CCC(=O)O)C(=O)N[C@@H](CCC(N)=O)C(=O)N[C@@H](CCC(N)=O)C(=O)N[C@@H](CCCCN)C(=O)N[C@@H](CCCCN)C(=O)N[C@@H](CC(N)=O)C(=O)N[C@@H](CCC(=O)O)C(=O)N[C@@H](CCC(=O)O)C(=O)N[C@@H](CCC(=O)O)C(=O)N[C@@H](CC(C)C)C(=O)N[C@@H](CCCCN)C(=O)N[C@@H](CCCCN)C(N)=O (Ac-WEEWDKKIEEYTKKIEELIKKFEEQQKKNEEELKK-NH2)	4	0.7	6.3	72.9	0.6	8.82	–
CC[C@H](C)[C@H](NC(=O)[C@H](CC(C)C)NC(=O)[C@H](CCC(=O)O)NC(=O)[C@H](CCC(=O)O)NC(=O)[C@@H](NC(=O)[C@H](CCCCN)NC(=O)[C@H](CCCCN)NC(=O)[C@@H](NC(=O)[C@H](Cc1ccc(O)cc1)NC(=O)[C@H](CCC(=O)O)NC(=O)[C@H](CCC(=O)O)NC(=O)[C@@H](NC(=O)[C@H](CCCCN)NC(=O)[C@H](CCCCN)NC(=O)[C@H](CC(=O)O)NC(=O)[C@H](Cc1c[nH]c2ccccc12)NC(=O)[C@H](CCC(=O)O)NC(=O)[C@H](CCC(=O)O)NC(=O)[C@H](Cc1c[nH]c2ccccc12)NC(C)=O)[C@@H](C)CC)[C@@H](C)O)[C@@H](C)CC)C(=O)N[C@@H](CCCCN)C(=O)N[C@@H](CCCCN)C(=O)N[C@@H](CCC(N)=O)C(=O)N[C@@H](CCC(=O)O)C(=O)N[C@@H](CCC(=O)O)C(=O)N[C@@H](CCC(N)=O)C(=O)N[C@@H](CCC(N)=O)C(=O)N[C@@H](CCCCN)C(=O)N[C@@H](CCCCN)C(=O)N[C@@H](CC(N)=O)C(=O)N[C@@H](CCC(=O)O)C(=O)N[C@@H](CCC(=O)O)C(=O)N[C@@H](CCC(=O)O)C(=O)N[C@@H](CC(C)C)C(=O)N[C@@H](CCCCN)C(=O)N[C@@H](CCCCN)C(N)=O (Ac-WEEWDKKIEEYTKKIEELIKKQEEQQKKNEEELKK-NH2)	2.1	0.9	6.1	65.9	0.5	8.62	–
CC[C@H](C)[C@H](NC(=O)[C@H](CC(C)C)NC(=O)[C@H](CCC(=O)O)NC(=O)[C@H](CCC(=O)O)NC(=O)[C@@H](NC(=O)[C@H](CCCCN)NC(=O)[C@H](CCCCN)NC(=O)[C@@H](NC(=O)[C@H](Cc1ccc(O)cc1)NC(=O)[C@H](CCC(=O)O)NC(=O)[C@H](CCC(=O)O)NC(=O)[C@@H](NC(=O)[C@H](CCCCN)NC(=O)[C@H](CCCCN)NC(=O)[C@H](CC(=O)O)NC(=O)[C@H](Cc1c[nH]c2ccccc12)NC(=O)[C@H](CCC(=O)O)NC(=O)[C@H](CCC(=O)O)NC(=O)[C@H](Cc1c[nH]c2ccccc12)NC(C)=O)[C@@H](C)CC)[C@@H](C)O)[C@@H](C)CC)C(=O)N[C@@H](CCCCN)C(=O)N[C@@H](CCCCN)C(=O)N[C@@H](CCSC)C(=O)N[C@@H](CCC(=O)O)C(=O)N[C@@H](CCC(=O)O)C(=O)N[C@@H](CCC(N)=O)C(=O)N[C@@H](CCC(N)=O)C(=O)N[C@@H](CCCCN)C(=O)N[C@@H](CCCCN)C(=O)N[C@@H](CC(N)=O)C(=O)N[C@@H](CCC(=O)O)C(=O)N[C@@H](CCC(=O)O)C(=O)N[C@@H](CCC(=O)O)C(=O)N[C@@H](CC(C)C)C(=O)N[C@@H](CCCCN)C(=O)N[C@@H](CCCCN)C(N)=O (Ac-WEEWDKKIEEYTKKIEELIKKMEEQQKKNEEELKK-NH2)	12.5	8.9	6.8	84.1	13.3	9.17	–
CC[C@H](C)[C@H](NC(=O)[C@H](CC(C)C)NC(=O)[C@H](CCC(=O)O)NC(=O)[C@H](CCC(=O)O)NC(=O)[C@@H](NC(=O)[C@H](CCCCN)NC(=O)[C@H](CCCCN)NC(=O)[C@@H](NC(=O)[C@H](Cc1ccc(O)cc1)NC(=O)[C@H](CCC(=O)O)NC(=O)[C@H](CCC(=O)O)NC(=O)[C@@H](NC(=O)[C@H](CCCCN)NC(=O)[C@H](CCCCN)NC(=O)[C@H](CC(=O)O)NC(=O)[C@H](Cc1c[nH]c2ccccc12)NC(=O)[C@H](CCC(=O)O)NC(=O)[C@H](CCC(=O)O)NC(=O)[C@H](Cc1c[nH]c2ccccc12)NC(C)=O)[C@@H](C)CC)[C@@H](C)O)[C@@H](C)CC)C(=O)N[C@@H](CCCCN)C(=O)N[C@@H](CCCCN)C(=O)N[C@@H](CC(N)=O)C(=O)N[C@@H](CCC(=O)O)C(=O)N[C@@H](CCC(=O)O)C(=O)N[C@@H](CCC(N)=O)C(=O)N[C@@H](CCC(N)=O)C(=O)N[C@@H](CCCCN)C(=O)N[C@@H](CCCCN)C(=O)N[C@@H](CC(N)=O)C(=O)N[C@@H](CCC(=O)O)C(=O)N[C@@H](CCC(=O)O)C(=O)N[C@@H](CCC(=O)O)C(=O)N[C@@H](CC(C)C)C(=O)N[C@@H](CCCCN)C(=O)N[C@@H](CCCCN)C(N)=O (Ac-WEEWDKKIEEYTKKIEELIKKNEEQQKKNEEELKK-NH2)	4.3	1.1	6.4	69	0.5	8.66	–
CC[C@H](C)[C@H](NC(=O)[C@H](CC(C)C)NC(=O)[C@H](CCC(=O)O)NC(=O)[C@H](CCC(=O)O)NC(=O)[C@@H](NC(=O)[C@H](CCCCN)NC(=O)[C@H](CCCCN)NC(=O)[C@@H](NC(=O)[C@H](Cc1ccc(O)cc1)NC(=O)[C@H](CCC(=O)O)NC(=O)[C@H](CCC(=O)O)NC(=O)[C@@H](NC(=O)[C@H](CCCCN)NC(=O)[C@H](CCCCN)NC(=O)[C@H](CC(=O)O)NC(=O)[C@H](Cc1c[nH]c2ccccc12)NC(=O)[C@H](CCC(=O)O)NC(=O)[C@H](CCC(=O)O)NC(=O)[C@H](Cc1c[nH]c2ccccc12)NC(C)=O)[C@@H](C)CC)[C@@H](C)O)[C@@H](C)CC)C(=O)N[C@@H](CCCCN)C(=O)N[C@@H](CCCCN)C(=O)N[C@@H](CCC(=O)O)C(=O)N[C@@H](CCC(=O)O)C(=O)N[C@@H](CCC(=O)O)C(=O)N[C@@H](CCC(N)=O)C(=O)N[C@@H](CCC(N)=O)C(=O)N[C@@H](CCCCN)C(=O)N[C@@H](CCCCN)C(=O)N[C@@H](CC(N)=O)C(=O)N[C@@H](CCC(=O)O)C(=O)N[C@@H](CCC(=O)O)C(=O)N[C@@H](CCC(=O)O)C(=O)N[C@@H](CC(C)C)C(=O)N[C@@H](CCCCN)C(=O)N[C@@H](CCCCN)C(N)=O (Ac-WEEWDKKIEEYTKKIEELIKKEEEQQKKNEEELKK-NH2)	1.8	1.3	5.1	66.2	1	7.82	–
CC[C@H](C)[C@H](NC(=O)[C@H](CC(C)C)NC(=O)[C@H](CCC(=O)O)NC(=O)[C@H](CCC(=O)O)NC(=O)[C@@H](NC(=O)[C@H](CCCCN)NC(=O)[C@H](CCCCN)NC(=O)[C@@H](NC(=O)[C@H](Cc1ccc(O)cc1)NC(=O)[C@H](CCC(=O)O)NC(=O)[C@H](CCC(=O)O)NC(=O)[C@@H](NC(=O)[C@H](CCCCN)NC(=O)[C@H](CCCCN)NC(=O)[C@H](CC(=O)O)NC(=O)[C@H](Cc1c[nH]c2ccccc12)NC(=O)[C@H](CCC(=O)O)NC(=O)[C@H](CCC(=O)O)NC(=O)[C@H](Cc1c[nH]c2ccccc12)NC(C)=O)[C@@H](C)CC)[C@@H](C)O)[C@@H](C)CC)C(=O)N[C@@H](CCCCN)C(=O)N[C@@H](CCCCN)C(=O)N[C@@H](CO)C(=O)N[C@@H](CCC(=O)O)C(=O)N[C@@H](CCC(=O)O)C(=O)N[C@@H](Cc1ccc(O)cc1)C(=O)N[C@@H](CCC(N)=O)C(=O)N[C@@H](CCCCN)C(=O)N[C@@H](CCCCN)C(=O)N[C@@H](CC(N)=O)C(=O)N[C@@H](CCC(=O)O)C(=O)N[C@@H](CCC(=O)O)C(=O)N[C@@H](CCC(=O)O)C(=O)N[C@@H](CC(C)C)C(=O)N[C@@H](CCCCN)C(=O)N[C@@H](CCCCN)C(N)=O (Ac-WEEWDKKIEEYTKKIEELIKKSEEYQKKNEEELKK-NH2)	–	–	–	76.3	–	8.66	5.5
CC[C@H](C)[C@H](NC(=O)[C@H](CC(C)C)NC(=O)[C@H](CCC(=O)O)NC(=O)[C@H](CCC(=O)O)NC(=O)[C@@H](NC(=O)[C@H](CCCCN)NC(=O)[C@H](CCCCN)NC(=O)[C@@H](NC(=O)[C@H](Cc1ccc(O)cc1)NC(=O)[C@H](CCC(=O)O)NC(=O)[C@H](CCC(=O)O)NC(=O)[C@@H](NC(=O)[C@H](CCCCN)NC(=O)[C@H](CCCCN)NC(=O)[C@H](CC(=O)O)NC(=O)[C@H](Cc1c[nH]c2ccccc12)NC(=O)[C@H](CCC(=O)O)NC(=O)[C@H](CCC(=O)O)NC(=O)[C@H](Cc1c[nH]c2ccccc12)NC(C)=O)[C@@H](C)CC)[C@@H](C)O)[C@@H](C)CC)C(=O)N[C@@H](CCCCN)C(=O)N[C@@H](CCCCN)C(=O)N[C@@H](CO)C(=O)N[C@@H](CCC(=O)O)C(=O)N[C@@H](CCC(=O)O)C(=O)N[C@@H](CC(N)=O)C(=O)N[C@@H](CCC(N)=O)C(=O)N[C@@H](CCCCN)C(=O)N[C@@H](CCCCN)C(=O)N[C@@H](CC(N)=O)C(=O)N[C@@H](CCC(=O)O)C(=O)N[C@@H](CCC(=O)O)C(=O)N[C@@H](CCC(=O)O)C(=O)N[C@@H](CC(C)C)C(=O)N[C@@H](CCCCN)C(=O)N[C@@H](CCCCN)C(N)=O (Ac-WEEWDKKIEEYTKKIEELIKKSEENQKKNEEELKK-NH2)	–	–	–	73.4	–	8.60	4
